Experimental data taken from patent US12275731B2, “Azaindole inhibitors of wild-type and mutant forms of LRRK2” (DANA-FARBER CANCER INSTITUTE, INC., priority 2018, dated 2025).

Experiments:
Test in all cases: KinomeScan profiling
Type in all cases: binding
GSK3B = GSK3B (Homo sapiens, UniProt P49841); details: read-out: % control
Outline: (§1)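 Percent-of-control values derive from RLU, calculated as (test − positive)/(negative − positive) × 100, where DMSO defines 100% and a positive control compound defines 0%. Each compound was tested at 1 μM in the 468-kinase panel; sub-35% readings indicate activity.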

PRKR = PRKR (Homo sapiens, UniProt P19525); details: read-out: % control
PRKR, sequence (P19525 whole entry): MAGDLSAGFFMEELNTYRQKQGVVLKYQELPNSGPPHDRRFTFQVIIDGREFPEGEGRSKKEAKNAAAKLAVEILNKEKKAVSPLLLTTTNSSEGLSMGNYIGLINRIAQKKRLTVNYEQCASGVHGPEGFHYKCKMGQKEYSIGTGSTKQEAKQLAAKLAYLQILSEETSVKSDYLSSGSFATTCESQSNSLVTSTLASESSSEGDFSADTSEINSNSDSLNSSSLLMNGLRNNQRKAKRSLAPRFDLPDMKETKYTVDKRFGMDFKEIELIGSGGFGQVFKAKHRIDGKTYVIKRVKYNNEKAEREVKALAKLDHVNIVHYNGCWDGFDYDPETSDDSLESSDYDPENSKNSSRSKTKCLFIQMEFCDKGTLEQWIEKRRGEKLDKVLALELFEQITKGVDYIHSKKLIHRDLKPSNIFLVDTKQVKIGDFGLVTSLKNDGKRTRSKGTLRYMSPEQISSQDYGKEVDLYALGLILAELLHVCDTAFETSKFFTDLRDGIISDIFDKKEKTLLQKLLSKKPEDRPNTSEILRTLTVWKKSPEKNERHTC
Outline: as §1

p38-gamma = target: T1, p38-gamma (Homo sapiens, UniProt P53778); details: read-out: % control
T1 sequence (P53778 1-367): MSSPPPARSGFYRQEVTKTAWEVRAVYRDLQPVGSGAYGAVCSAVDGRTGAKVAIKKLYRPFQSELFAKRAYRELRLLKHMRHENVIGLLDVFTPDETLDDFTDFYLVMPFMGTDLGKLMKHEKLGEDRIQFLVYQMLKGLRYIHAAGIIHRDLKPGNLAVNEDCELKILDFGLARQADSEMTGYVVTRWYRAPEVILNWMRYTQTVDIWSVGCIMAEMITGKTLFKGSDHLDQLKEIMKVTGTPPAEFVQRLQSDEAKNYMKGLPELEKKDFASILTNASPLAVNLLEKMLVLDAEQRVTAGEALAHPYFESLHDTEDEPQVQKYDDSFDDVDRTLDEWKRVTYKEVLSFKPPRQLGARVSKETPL
Outline: as §1

NIM1 = NIM1 (Homo sapiens, UniProt Q8IY84); details: NIM1, 1 μM; read-out: % control
NIM1, sequence (Q8IY84 whole entry): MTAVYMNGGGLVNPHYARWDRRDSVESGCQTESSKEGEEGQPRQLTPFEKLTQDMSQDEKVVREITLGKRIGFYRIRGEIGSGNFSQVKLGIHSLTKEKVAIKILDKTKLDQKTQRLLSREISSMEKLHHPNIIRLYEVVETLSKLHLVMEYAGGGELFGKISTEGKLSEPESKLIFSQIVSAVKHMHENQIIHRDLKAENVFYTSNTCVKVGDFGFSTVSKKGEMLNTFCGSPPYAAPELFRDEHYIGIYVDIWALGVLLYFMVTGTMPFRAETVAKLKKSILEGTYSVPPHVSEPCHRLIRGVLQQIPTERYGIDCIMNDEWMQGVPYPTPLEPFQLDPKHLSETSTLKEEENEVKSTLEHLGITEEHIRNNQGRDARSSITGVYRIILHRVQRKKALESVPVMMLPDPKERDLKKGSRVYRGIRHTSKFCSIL
Outline: as §1

HUNK = target: T2, HUNK (Homo sapiens, UniProt P57058); details: read-out: % control
T2 sequence (P57058 1-714): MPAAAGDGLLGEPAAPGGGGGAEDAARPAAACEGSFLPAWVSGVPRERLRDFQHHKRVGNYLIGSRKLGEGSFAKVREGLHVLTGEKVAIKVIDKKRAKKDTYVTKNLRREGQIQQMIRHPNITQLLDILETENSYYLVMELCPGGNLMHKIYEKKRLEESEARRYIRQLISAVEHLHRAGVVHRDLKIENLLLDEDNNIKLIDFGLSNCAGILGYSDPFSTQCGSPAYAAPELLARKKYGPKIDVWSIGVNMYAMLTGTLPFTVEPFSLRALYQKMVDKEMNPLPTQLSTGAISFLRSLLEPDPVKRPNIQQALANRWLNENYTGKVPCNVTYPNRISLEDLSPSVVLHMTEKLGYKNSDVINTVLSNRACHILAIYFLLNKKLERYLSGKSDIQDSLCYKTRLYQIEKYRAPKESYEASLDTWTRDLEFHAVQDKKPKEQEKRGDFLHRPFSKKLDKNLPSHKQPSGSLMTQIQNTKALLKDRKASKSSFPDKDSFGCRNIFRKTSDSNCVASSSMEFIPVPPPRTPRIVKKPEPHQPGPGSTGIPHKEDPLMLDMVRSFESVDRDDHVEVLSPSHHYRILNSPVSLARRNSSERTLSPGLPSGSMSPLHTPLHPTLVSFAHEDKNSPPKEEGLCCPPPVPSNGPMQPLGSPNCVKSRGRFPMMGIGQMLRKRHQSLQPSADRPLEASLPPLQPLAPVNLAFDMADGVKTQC
Outline: as §1

RIOK1 = target: T3, RIOK1 (Homo sapiens, UniProt Q9BRS2); details: RIOK1, 1 μM; read-out: % control
T3 sequence (Q9BRS2 1-568): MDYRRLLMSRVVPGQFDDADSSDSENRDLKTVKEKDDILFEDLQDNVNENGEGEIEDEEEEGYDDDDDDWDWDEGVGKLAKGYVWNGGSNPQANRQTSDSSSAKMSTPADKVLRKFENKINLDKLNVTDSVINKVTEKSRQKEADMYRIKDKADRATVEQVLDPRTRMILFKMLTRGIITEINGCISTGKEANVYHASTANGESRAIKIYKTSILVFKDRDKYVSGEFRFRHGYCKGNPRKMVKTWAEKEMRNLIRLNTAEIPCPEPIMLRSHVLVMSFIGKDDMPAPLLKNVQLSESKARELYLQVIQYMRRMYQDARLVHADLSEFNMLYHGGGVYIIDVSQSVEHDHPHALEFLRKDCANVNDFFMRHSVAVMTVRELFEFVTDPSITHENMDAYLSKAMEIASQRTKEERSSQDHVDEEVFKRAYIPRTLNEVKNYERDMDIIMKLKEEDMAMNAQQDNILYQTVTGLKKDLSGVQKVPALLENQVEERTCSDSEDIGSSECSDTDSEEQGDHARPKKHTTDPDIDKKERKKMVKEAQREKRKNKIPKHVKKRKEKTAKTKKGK
Outline: as §1

GSK3B, sequence (P49841 whole entry): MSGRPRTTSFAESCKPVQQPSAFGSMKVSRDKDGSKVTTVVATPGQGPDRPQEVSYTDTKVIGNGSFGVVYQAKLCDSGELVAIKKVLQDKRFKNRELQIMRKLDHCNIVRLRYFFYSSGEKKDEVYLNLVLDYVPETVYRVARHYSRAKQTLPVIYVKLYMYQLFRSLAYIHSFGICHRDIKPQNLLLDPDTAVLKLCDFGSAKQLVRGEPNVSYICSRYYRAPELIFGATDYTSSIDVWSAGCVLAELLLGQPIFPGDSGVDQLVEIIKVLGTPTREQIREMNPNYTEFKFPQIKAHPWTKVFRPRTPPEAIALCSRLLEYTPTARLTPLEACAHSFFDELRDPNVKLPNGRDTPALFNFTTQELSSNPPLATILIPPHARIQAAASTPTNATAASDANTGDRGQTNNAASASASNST

SMILES	remaining binding at 1 µM (GSK3B) [%]	remaining binding at 1 µM (PRKR) [%]	remaining binding at 1 µM (p38-gamma) [%]	remaining binding at 1 µM (NIM1) [%]	remaining binding at 1 µM (HUNK) [%]	remaining binding at 1 µM (RIOK1) [%]
CNc1c(-c2cnn([C@H]3CCN(C(C)=O)C[C@@H]3F)c2)cnc2[nH]cc(Cl)c12 [Compound 77, 1-((3S,4S)-4-(4-(3-chloro-4-(methylamino)-1H-pyrrolo[2,3-b]pyridin-5-yl)-1H-pyrazol-1-yl)-3-fluoropiperidin-1-yl)ethan-1-one]	69	68	97	69	100	0
CNc1c(-c2ccc(C(=O)N3CCC(N4CCOCC4)CC3)cc2)cnc2[nH]cc(Cl)c12 [Compound 96, (4-(3-chloro-4-(methylamino)-1H-pyrrolo[2,3-b]pyridin-5-yl)phenyl)(4-morpholinopiperidin-1-yl)methanone]	63	70	92	50	100	0.15
O=C(c1ccc(-c2cnc3[nH]cc(Cl)c3c2NC2CCCC2)cc1)N1CCC(N2CCOCC2)CC1 [Compound 101, (4-(3-chloro-4-(cyclopentylamino)-1H-pyrrolo[2,3-b]pyridin-5-yl)phenyl)(4-morpholinopiperidin-1-yl)methanone]	100	82	79	99	100	11
